In one data set the test system is Group B Streptococci. Description: Bacteriocidal time study, 200 ppm gNO, saline suspension. In kind it is cell-based, Group B Streptococcus. Here is the method:
Following the dose and time ranging studies, a series of experiments were performed to determine the time required to effectively induce a bacteriocidal effect with 200 parts per million of gNO, a concentration just above the dose used in the dose-ranging study, on a representative collection of drug resistant gram-positive and gram-negative strains of bacteria associated with clinical infection. A successful bacteriocidal effect was defined as a decrease in bacteria greater than 3 log10 cfu/ml. Further, C. albicans, Methicillin Resistant S. aureus (MRSA), a particularly resistant strain of P. aeruginosa from a cystic fibrosis patient, Group B Streptococcus, and M. smegmatis were also included to see if yeast, multi-drug resistant strains of bacteria, and actinomycetes have a similar response. The drug-resistant bacteria represent a variety of pathogens that contribute to both respiratory and wound infections.
For these experiments, saline was selected as a suspension media because it would not mask the direct effect of gNO as a bacteriocidal, whereas fully supplemented growth medium might introduce external variables (e.g., buffer or react with gNO). Other media might also provide metabolites and replenish nutrients that produce enzymes that protect bacteria from oxidative and nitrosative damage, thereby masking the effect of gNO. […] In saline, the colonies were static but remained viable. This is similar to the approach of Webert and Jean's use of animal models. Webert K E, et al (2000), Effects of inhaled nitric oxide in a rat model of Pseudomonas aeruginosa pneumonia, Crit. Care Med, 28(7):2397-2405 and Jean D, et al., (2002) Beneficial effects of nitric oxide inhalation on pulmonary bacterial clearance, Critical Care Medicine. 30(2):442-7.
The latent period was then followed by an abrupt death of all cells. Gram negative and gram positive bacteria, antibiotic resistant bacterial strains, yeast and mycobacteria were all susceptible to 200 ppm gNO. Of importance, is the observation that the two drug resistant bacteria strains were also susceptible.

For the next data set, the system named is collagenase mRNA. Description: mRNA expression after gNO exposure. To be noted: 200 ppm gNO; 24 hours and 48 hours. It is filed as cell-based. From the text:
Witte M B, et al, (2002) Nitric oxide enhances […] wound healing in diabetes, Br J. Surg., 89:1594-601. Thus, Applicants believe that NO may upregulate expression of both collagenase (MMP-1) and gelatinase (MMP-2), which may be important in keeping the wound clean from necrotic tissue while not prolonging the inflammatory phase.

The test system of the next data set is Fibroblast cells. Description: Fibroblast viability study in gNO chamber. In kind it is cell-based, human. On the procedure:
Fibroblast cells obtained from adult patients undergoing elective reconstructive surgery were cultured in Dulbeco's Modified Eagle's Medium (DMEM), supplemented with 10% fetal bovine serum (FBS) and antibiotic-antimycotic preparation and divided into ten 25 cm^2 vented culture flasks (COSTAR). […] The NO exposure chamber was validated prior to the study to eliminate extraneous variables and ensure optimal conditions for fibroblast cell growth. Another four flasks (control group) were placed inside conventional culture incubator and exposed only to ambient humidified air at 37° C. Two flasks were separately harvested and counted as the number of cells at zero time. Following the treatment, fibroblast cells were harvested and evaluated for morphology, cell count, capacity to proliferate and medium pH.
Cells under gNO appeared healthy and attached to the culture plates.
Capability of cells to reattach to the culture plates within a specified time limit is commonly used as an indication of viability of cells in culture. Both the control and treated groups show a 70% attachment capacity within 1 hour of culturing.

The test system of data set [1] is non-healing venous leg ulcer. Description: Human case study, non-healing venous leg ulcer, topical gNO. In kind it is in vivo. From the text:
This case study involved a person with a 30 year history of severe venous disease, both deep and superficial, related to deep vein thrombophlebitis. Initially, while, the patient developed bilateral non-healing venous leg ulcers that were surgically treated. The surgical sites healed but the ulcers continued to recur. Initially, the patient presented with a small ulcer located just below the medial malleolus of the left ankle.
Arrangements were made to meet at the patient's home the following day to set up the equipment and for them to have a repeat training on the use of the treatment system. Training included use of the system as well as safety information on using the gas equipment.
Nitric oxide gas (ViaNOx-H, VIASYS Healthcare, Yorba Linda, Calif., USA) was applied to the lower extremity with use of a gas-diluting delivery system (CidaNOx Delivery System) designed specifically for the study (PulmoNOx Medical Inc., Edmonton, Alberta, Canada). This CidaNOx delivery system contains an internal air pump for dilution of the gNO and a flow control circuit to dilute the 800 parts per million (ppm) in the NO source cylinder down to the therapeutic level of 200 ppm. The total flow from the system was 1.0 L/min and included one-quarter of a liter per minute (250 ml/min) flow of gNO. Several internal pressure sensors assure the dilution flow is operational and monitor the system. The flow of nitric oxide was limited to 250 ml/min by a mechanically set pressure regulator and a mechanical flowmeter that have no external controls that could be changed by the patient. The concentration of nitric oxide delivered was assured by measurement of the CidaNOx output with a calibrated nitric oxide analyzer (AeroNOx, Pulmonox Medical Inc.) that is approved for monitoring inhaled NO in human patients.
The 200 ppm gNO from the CidaNOx Delivery System flowed out to a single patient use plastic boot that covered the patient's lower extremity. […] A secondary air outlet from the CidaNOx unit managed the inflation of the cuff. The patient connected the pump outlet to the cuff connector until it was inflated and then the connector was sealed closed with the provided clamp. […]
To explore the potential for wound bed preparation and accelerated wound healing from prolonged use, treatment regimen beyond three days was chosen and which was stopped at 14 days to evaluate the short-term effects and explore the possibility that the short-term effects would improve the longer-term outcome. […] The patient recorded the date, time, and duration of each treatment period on a data sheet, and any significant observations related to the wound, treatment, or equipment. The wound size (cm^2) was measured using digital photography and densitometry technique (Scion Image −4.02, Scion Corp., Frederick Md., USA). […]

Take `[N]=O` [gNO, nitric oxide]: in the data set with Group B Streptococci, the LD100 is 2 h and the “Latent Period*” value came to 1 h. Besides, the “−2.5 Log10” value with Group B Streptococci (time to −2.5 log10 cfu/ml) turned out to be 1.5 hrs. Also, the “expression of collagenase mRNA” value with collagenase mRNA was “increased”. In the data set with Fibroblast cells (160 ppm gNO, within 1 hour of culturing, control the same), the attachment capacity turned out to be 70%. In the data set on Fibroblast cells (200 ppm NO, compared with control), the “proliferation of fibroblast cells” value was “positive effect of increasing proliferation”. Further, the “harmful effects on the fibroblast” value with Fibroblast cells (around 200 ppm gNO, 24 and 48 hours) was “did not have harmful effects”. The “toxic effect, morphology and attachment” value in the data set with Fibroblast cells (gNO concentrations less than 200 ppm continuously for 48 hours) is given as “No toxic effect”. In data set [1] (26 weeks post NO discontinuation), the ulcer status result is “completely healed and reepithelialized”. Moreover, the “wound size, day 3” value in data set [1] (200 ppm gNO nightly, day 3, 24 hours cumulative exposure, p=0.014) is recorded as “Significant wound size reduction”. Also, the “reduction in wound area” value in data set [1] (200 ppm gNO nightly, end of therapy at day 14) was “approximately 75%”. Besides, the wound healed entry in data set [1] (six weeks after the end of 14-day 200 ppm gNO treatment) is “about 90%”.

Source of the values: patent US8795222B2, “Device and method for treatment of surface infections with nitric oxide” (Pulmonox Technologies Corp., priority 2000, dated 2014).
